The results in this text go back to US8883776B2, “Cycloalkyloxy- and heterocycloalkyloxypyridine compounds as modulators of the histamine H3 receptor” (Janssen Pharmaceutica N.V., priority 2007, dated 2014).

The structures appear in SMILES notation. Structures can show the parent of a compound that is named as a salt.

Assay [1] has as its target T1, cloned human H3 receptors (Homo sapiens, UniProt Q9Y5N1).
T1 construct: expressed in transfected cells
Briefly: H3 Receptor Binding (Human). The following applies: cloned human H3 receptors stably expressed in SK-N-MC cells; average of results. The protocol: H3 Receptor Binding (Human)
Binding of compounds to the cloned human H3 receptors, stably expressed in SK-N-MC cells, was performed as described by Barbier, A. J. et al. (Br. J. Pharmacol. 2004, 143(5), 649-661).

A further assay addresses human H3 receptor (Homo sapiens, UniProt Q9Y5N1). The experiment in a line: Cyclic AMP Accumulation, SK-N-MC cells expressing reporter construct and human H3 receptor. The following applies: cAMP accumulation, average of results, read-out: Human pA2 (converted). It is filed as cell-based. The source says:
(§1) Sublines of SK-N-MC cells were created that expressed a reporter construct and either the human or rat H3 receptor. The pA2 values were obtained as described by Barbier et al. (2004).

In assay [2] the target is T2, rat H3 receptor (Rattus norvegicus, UniProt Q9QYN8). Briefly: Cyclic AMP Accumulation, SK-N-MC cells expressing reporter construct and rat H3 receptor. It is filed as cell-based. Set-up: expressed in transfected cells; host or cells: SK-N-MC sublines with reporter construct. The following applies: cAMP accumulation, average of results, read-out: Rat pA2 (converted).
T2 sequence (Q9QYN8 whole entry): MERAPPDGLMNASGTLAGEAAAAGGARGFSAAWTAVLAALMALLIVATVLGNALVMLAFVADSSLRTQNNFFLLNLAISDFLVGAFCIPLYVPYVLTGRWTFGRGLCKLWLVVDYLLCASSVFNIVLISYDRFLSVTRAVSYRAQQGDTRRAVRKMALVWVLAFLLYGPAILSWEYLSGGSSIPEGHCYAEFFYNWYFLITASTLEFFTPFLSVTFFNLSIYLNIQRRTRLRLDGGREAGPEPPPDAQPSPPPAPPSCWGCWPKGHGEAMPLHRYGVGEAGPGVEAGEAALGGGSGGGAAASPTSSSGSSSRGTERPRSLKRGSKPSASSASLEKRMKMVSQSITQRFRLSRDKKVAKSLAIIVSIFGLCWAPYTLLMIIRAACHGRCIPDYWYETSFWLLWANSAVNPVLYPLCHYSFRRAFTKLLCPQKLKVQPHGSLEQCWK
Excerpt: as §1

In assay [3] the target is T2, rat H3 receptor. The experiment in a line: H3 Receptor Binding (Rat), rat brain membranes, N-[3H]-α-methylhistamine. The following applies: rat brain without cerebellum membranes; 0.8 nM N-[3H]-α-methylhistamine; average of results. The protocol:
H3 Receptor Binding (Rat)
A rat brain without cerebellum (Zivic Laboratories Inc., Pittsburgh, Pa.) was homogenized in 50 mM Tris-HCl/5 mM EDTA and centrifuged at 1,000 rpm for 5 min. The supernatant was removed and recentrifuged at 15,000 rpm for 30 min. Pellets were rehomogenized in 50 mM Tris/5 mM EDTA (pH 7.4). Membranes were incubated with 0.8 nM N—[^3H]-α-methylhistamine plus/minus test compounds for 60 min at 25° C. and harvested by rapid filtration over GF/C glass fiber filters (pretreated with 0.3% polyethylenimine) followed by four washes with buffer. Nonspecific binding was defined in the presence of 100 μM histamine. Inhibitory concentration (responsible for 50% inhibition of maximal effect, IC50) values were determined by a single site curve-fitting program (GraphPad, San Diego, Calif.) and converted to Ki values based on a N—[^3H]-α-methylhistamine dissociation constant (Kd) of 0.8 nM.

T1 sequence (Q9Y5N1 whole entry): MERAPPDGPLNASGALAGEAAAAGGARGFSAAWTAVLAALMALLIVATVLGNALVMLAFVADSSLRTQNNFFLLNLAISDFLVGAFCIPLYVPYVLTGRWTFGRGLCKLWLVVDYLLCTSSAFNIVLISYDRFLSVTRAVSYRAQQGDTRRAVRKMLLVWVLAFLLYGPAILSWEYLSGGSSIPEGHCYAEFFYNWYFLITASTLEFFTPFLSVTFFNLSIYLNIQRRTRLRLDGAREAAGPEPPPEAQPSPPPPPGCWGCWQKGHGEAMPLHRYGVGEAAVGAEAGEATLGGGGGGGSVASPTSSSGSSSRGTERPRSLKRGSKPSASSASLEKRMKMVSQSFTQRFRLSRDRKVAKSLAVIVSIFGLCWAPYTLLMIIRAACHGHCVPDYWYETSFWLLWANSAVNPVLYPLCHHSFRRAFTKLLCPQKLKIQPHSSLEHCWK
Sequence of human H3 receptor (Q9Y5N1 whole entry): as above

The compound `N#Cc1nc(C(=O)N2CCCN(C3CC3)CC2)ccc1OC1CCCCC1` [Example 12, 3-Cyclohexyloxy-6-(4-cyclopropyl-[1,4]diazepane-1-carbonyl)-pyridine-2-carbonitrile] came in with a Ki in assay [1] of 2.2 nM.
The compound `CC(C)N1CCN(C(=O)c2ccc(OCC3(C)COC3)nc2)CC1` [Example 5, (4-isopropyl-piperazin-1-yl)-[6-(3-methyl-oxetan-3-ylmethoxy)-pyridin-3-yl]-methanone hydrochloride salt] had a Ki in assay [1] of 5010 nM.
On the same count and under the same terms, for `N#Cc1nc(C(=O)N2CCCN(C3CC3)CC2)ccc1OC1CCCC1` [Example 11, 3-Cyclopentyloxy-6-(4-cyclopropyl-[1,4]diazepane-1-carbonyl)-pyridine-2-carbonitrile] the value was 6 nM; for `CC(C)N1CCN(C(=O)c2ccc(OC3CCOC3)nc2)CC1` (stereo not drawn) [Example 1, (4-isopropyl-piperazin-1-yl)-[6-(tetrahydro-furan-3-yloxy)-pyridin-3-yl]-methanone hydrochloride salt], 104 nM; for `CC(C)N1CCCN(C(=O)c2ccc(OC3CCOC3)nc2)CC1` (stereo not drawn) [Example 2, (4-Isopropyl-[1,4]diazepan-1-yl)-[6-(tetrahydro-furan-3-yloxy)-pyridin-3-yl]-methanone hydrochloride salt], 9 nM.
Consider `CC(C)N1CCCN(C(=O)c2ccc(OCC3(C)COC3)nc2)CC1` [Example 6, (4-Isopropyl-[1,4]diazepan-1-yl)-[6-(3-methyl-oxetan-3-ylmethoxy)-pyridin-3-yl]-methanone hydrochloride salt], for which the Ki in assay [1] came out at 37 nM.
Turning to `O=C(c1ccc(OC2CCCC2)nc1)N1CCCN(C2CCC2)CC1` [Example 7, (4-Cyclobutyl-[1,4]diazepan-1-yl)-(6-cyclopentyloxy-pyridin-3-yl)-methanone], the Kb was 0.49 nM at human H3 receptor and 4.79 nM at rat H3 receptor [2]. Also, the values for the Ki (in assay [1]; on rat H3 receptor [3]) were 1.1 nM and 44 nM, respectively.
Turning to `O=C(c1ccc(OC2CCCCC2)nc1)N1CCCN(C2CCC2)CC1` [Example 8, (4-Cyclobutyl-[1,4]diazepan-1-yl)-(6-cyclohexyloxy-pyridin-3-yl)-methanone], the Kb at human H3 receptor was 1.05 nM; on rat H3 receptor [2], 9.77 nM. Further, the Ki in assay [1] turned out to be 0.8 nM; on rat H3 receptor [3], 17 nM.
The matching figures for `O=C(c1ccc(OC2CCOCC2)nc1)N1CCCN(C2CCC2)CC1` [Example 9, (4-Cyclobutyl-[1,4]diazepan-1-yl)-[6-(tetrahydro-pyran-4-yloxy)-pyridin-3-yl]-methanone]: 0.234 nM, 4.37 nM, 0.9 nM and 28 nM.
On to `O=C(c1ccc(OC2CCOC2)nc1)N1CCCN(C2CC2)CC1` (stereo not drawn) [Example 3, (4-Cyclopropyl-[1,4]diazepan-1-yl)-[6-(tetrahydro-furan-3-yloxy)-pyridin-3-yl]-methanone], for which the Ki in assay [1] was 6.8 nM.
For the compound `O=C(c1ccc(OC2CCOC2)nc1)N1CCCN(C2CCC2)CC1` (stereo not drawn) [Example 4, (4-Cyclobutyl-[1,4]diazepan-1-yl)-[6-(tetrahydro-furan-3-yloxy)-pyridin-3-yl]-methanone], the figures for the Kb at human H3 receptor and at rat H3 receptor [2] were 0.331 nM and 14.5 nM, respectively. The Ki in assay [1] amounted to 1.3 nM; at rat H3 receptor [3] it was 58 nM.
`N#Cc1nc(C(=O)N2CCCN(C3CC3)CC2)ccc1OC1CCOC1` (stereo not drawn) [Example 10, 6-(4-Cyclopropyl-[1,4]diazepane-1-carbonyl)-3-(tetrahydro-furan-3-yloxy)-pyridine-2-carbonitrile] returned a Ki in assay [1] of 21 nM.
